Reference: ChEMBL document CHEMBL6153083, “Synthesis, Structural Modification, and Antismall Cell Lung Cancer Activity of 3-Arylisoquinolines with Dual Inhibitory Activity on Topoisomerase I and II” (J Med Chem, 2025)
Calls of active or inactive are those of the source. No cut-off for these calls is given here.

Assays:
[1] = Acute toxicity in Kunming mouse assessed as change in body weight at 300 mg/kg, ip measured for 10 days; format: organism-based; settings: in vivo, 240 h, time 10 day
Homo sapiens = species: Homo sapiens; experiment: Inhibition of Topo II (unknown origin) relaxation activity using pBR322 plasmid DNA as substrate at 25 to 100 uM incubated for 30 mins in presence of ATP; settings: dose 25-100 µM
NCI-H1048 [2] = experiment: Induction of apoptosis in human NCI-H1048 cells assessed as increase in cleaved caspase-3 level incubated for 48 hrs by Western blot analysis; format: functional, cell-based
NCI-H1048 [3] = experiment: Inhibition of clonogenesis in human NCI-H1048 cells incubated for 14 to 21 days by crystal violet staining based analysis; format: functional, cell-based; settings: dose 0.375-3 µM, time 14-21 day
[4] = Toxicity in BALB/c nude mouse xenografted with human NCI-H446 cells assessed as deleterious effect in kidney at 10 to 20 mg/kg, ip for 21 days by H and E staining based analysis; format: organism-based; settings: in vivo, 504 h, dose 10-20 mg/kg, time 21 day
NCI-H446 [5] = experiment: Induction of apoptosis in human NCI-H446 cells assessed as formation of membrane blebbing at 1 to 8 uM incubated for 48 hrs by Geimsa staining based analysis; format: functional, cell-based; settings: dose 1-8 µM
[6] = Toxicity in BALB/c nude mouse xenografted with human NCI-H446 cells assessed as deleterious effect in lungs at 10 to 20 mg/kg, ip for 21 days by H and E staining based analysis; format: organism-based; settings: in vivo, 504 h, dose 10-20 mg/kg, time 21 day
NCI-H446 [7] = experiment: Induction of cell cycle arrest in human NCI-H446 cells assessed as accumulation at S phase incubated for 48 hrs by PI staining based flow cytometry; format: functional; settings: dose 1-8 µM
NCI-H1048 [8] = experiment: Induction of apoptosis in human NCI-H1048 cells assessed as increase in cleaved caspase-9 level incubated for 48 hrs by Western blot analysis; format: functional, cell-based
NCI-H1048 [9] = experiment: Induction of apoptosis in human NCI-H1048 cells assessed as reduction in cell viability incubated for 48 hrs by Geimsa staining based analysis; format: functional
[10] = Inhibition of PI3K/AKT/mTOR signalling pathway in human NCI-H446 cells assessed as decrease in mTOR level at 1 to 8 uM incubated for 48 hrs by Western blot analysis; format: cell-based; settings: dose 1-8 µM
NCI-H446 [11] = experiment: Antitumor activity against human NCI-H446 cells xenografted in BALB/c nude mouse assessed as decrease in tumor volume at 10 to 20 mg/kg, ip for 21 days; format: functional, organism-based; settings: dose 10-20 mg/kg, time 21.0 day
NCI-H446 [12] = experiment: Inhibition of clonogenesis in human NCI-H446 cells incubated for 14 to 21 days by crystal violet staining based analysis; format: functional, cell-based; settings: dose 0.375-3 µM, time 14-21 day
NCI-H446 [13] = experiment: Induction of DNA damage in human NCI-H446 cells incubated for 48 hrs by comet assay; format: functional, cell-based; settings: dose 1-8 µM
NCI-H1048 [14] = experiment: Antiproliferative activity against human NCI-H1048 cells incubated for 72 hrs; format: functional, cell-based; settings: NCI-H1048, 72 h
SHP77 = experiment: Antiproliferative activity against human SHP77 cells incubated for 72 hrs; format: functional, cell-based; settings: SHP77, 72 h
NCI-H209 = experiment: Antiproliferative activity against human NCI-H209 cells incubated for 72 hrs; format: functional, cell-based; settings: NCI-H209, 72 h
NCI-H446 [15] = experiment: Induction of apoptosis in human NCI-H446 cells assessed as increase in cleaved caspase-9 level incubated for 48 hrs by Western blot analysis; format: functional, cell-based; settings: dose 1-8 µM
NCI-H1048 [16] = experiment: Induction of DNA damage in human NCI-H1048 cells incubated for 48 hrs by comet assay; format: functional, cell-based; settings: dose 1-8 µM
[17] = MRT (0 to infinity) in Sprague-Dawley rat at 10 mg/kg, ip measured after 24 hrs by LC-MS/MS analysis; format: ADME, organism-based; settings: in vivo
NCI-H446 [18] = experiment: Induction of apoptosis in human NCI-H446 cells assessed as chromatin condensation at 1 to 8 uM incubated for 48 hrs by Geimsa staining based analysis; format: functional, cell-based; settings: dose 1-8 µM
[19] = Toxicity in BALB/c nude mouse xenografted with human NCI-H446 cells assessed as deleterious effect in liver at 10 to 20 mg/kg, ip for 21 days by H and E staining based analysis; format: organism-based; settings: in vivo, 504 h, dose 10-20 mg/kg, time 21 day
NCI-H1048 [20] = experiment: Inhibition of cell migration in human NCI-H1048 cells incubated for 24 hrs by transwell assay; format: functional, cell-based; settings: dose 0.375-3 µM
NCI-H446 [21] = experiment: Induction of apoptosis in human NCI-H446 cells assessed as reduction in cell viability incubated for 48 hrs by Geimsa staining based analysis; format: functional; settings: dose 1-8 µM
NCI-H446 [22] = experiment: Antiproliferative activity against human NCI-H446 cells incubated for 72 hrs; format: functional, cell-based; settings: NCI-H446, 72 h
NCI-H82 = experiment: Antiproliferative activity against human NCI-H82 cells incubated for 72 hrs; format: functional, cell-based; settings: NCI-H82, 72 h
[23] = Toxicity in BALB/c nude mouse xenografted with human NCI-H446 cells assessed as body weight change at 10 to 20 mg/kg, ip for 21 days; format: organism-based; settings: in vivo, 504 h, dose 10-20 mg/kg, time 21 day
NCI-H446 [24] = experiment: Inhibition of cell invasion in human NCI-H446 cells incubated for 24 hrs by transwell assay; format: functional, cell-based
[25] = AUC (0 to infinity) in Sprague-Dawley rat at 10 mg/kg, ip measured after 24 hrs by LC-MS/MS analysis; format: ADME, organism-based; settings: in vivo
[26] = Inhibition of PI3K/AKT/mTOR signalling pathway in human NCI-H446 cells assessed as decrease in AKT level at 1 to 8 uM incubated for 48 hrs by Western blot analysis; format: cell-based; settings: dose 1-8 µM
[27] = Acute toxicity in Kunming mouse assessed as lethal dose; settings: in vivo
NCI-H1048 [28] = experiment: Inhibition of cell migration in human NCI-H1048 cells incubated for 24 hrs by wound-healing assay; format: functional, cell-based; settings: dose 0.375-3 µM
[29] = AUC (0 to t) in Sprague-Dawley rat at 10 mg/kg, ip measured after 24 hrs by LC-MS/MS analysis; format: ADME, organism-based; settings: in vivo
[30] = Toxicity in BALB/c nude mouse xenografted with human NCI-H446 cells assessed as deleterious effect in spleen at 10 to 20 mg/kg, ip for 21 days by H and E staining based analysis; format: organism-based; settings: in vivo, 504 h, dose 10-20 mg/kg, time 21 day
NCI-H1048 [31] = experiment: Induction of apoptosis in human NCI-H1048 cells assessed as decrease in Bcl-2 level incubated for 48 hrs by Western blot analysis; format: functional, cell-based
[32] = MRT (0 to t) in Sprague-Dawley rat at 10 mg/kg, ip measured after 24 hrs by LC-MS/MS analysis; format: ADME, organism-based; settings: in vivo
[33] = Tmax in Sprague-Dawley rat at 10 mg/kg, ip measured after 24 hrs by LC-MS/MS analysis; format: ADME, organism-based; settings: in vivo
NCI-H446 [34] = experiment: Induction of mitochondrial dysfunction in human NCI-H446 cells assessed as increase in ROS level at 1 to 8 uM incubated for 48 hrs by DCFH-DA staining based flow cytometry; format: functional, cell-based; settings: dose 1-8 µM
NCI-H446 [35] = experiment: Antitumor activity against human NCI-H446 cells xenografted in BALB/c nude mouse at 10 mg/kg, ip for 21 days relative to control; format: functional; settings: NCI-H446, 504 h, time 21 day, read-out: TGI
NCI-H446 [36] = experiment: Inhibition of cell migration in human NCI-H446 cells incubated for 24 hrs by transwell assay; format: functional, cell-based; settings: dose 0.375-3 µM
[37] = Antiproliferative activity against human NCI-H196 cells incubated for 72 hrs; format: functional, cell-based; settings: NCI-H196, 72 h
NCI-H146 = experiment: Antiproliferative activity against human NCI-H146 cells incubated for 72 hrs; format: functional, cell-based; settings: NCI-H146, 72 h

CCC1CCCC(C)N1Cc1cc2c(cc1-c1cc3ccc4c(c3cn1)OCO4)OCO2 (centres undefined)
Activity [1]: Non-toxic
inhibition (Homo sapiens): Active; Exhibited Stronger Activity Against Topo Ii Compared To Topo I
Activity (NCI-H1048 [2]): Dose-dependent-effect
inhibition (NCI-H1048 [3]): Dose-dependent-effect
Activity [4]: Non-toxic
Activity (NCI-H446 [5]): Active
Activity [6]: Non-toxic
Activity (NCI-H446 [7]): Dose-dependent-effect
Activity (NCI-H1048 [8]): Dose-dependent-effect
Activity (NCI-H1048 [9]): Dose-dependent-effect
inhibition [10]: Active
Activity (NCI-H446 [11]): Active; Exhibited Markedly Slow Growth Rate
inhibition (NCI-H446 [12]): Dose-dependent-effect
Activity (NCI-H446 [13]): Dose-dependent-effect
IC50 (NCI-H1048 [14]): 2.45 µM
IC50 (SHP77): 8.01 µM
IC50 (NCI-H209): 11.6 µM
Activity (NCI-H446 [15]): Dose-dependent-effect
Activity (NCI-H1048 [16]): Dose-dependent-effect
MRT inf [17]: 6.14 h
Activity (NCI-H446 [18]): Active
Activity [19]: Non-toxic
inhibition (NCI-H1048 [20]): Dose-dependent-effect
Activity (NCI-H446 [21]): Dose-dependent-effect
IC50 (NCI-H446 [22]): 1.32 µM
IC50 (NCI-H82): 2.41 µM
Activity [23]: Non-toxic
inhibition (NCI-H446 [24]): Dose-dependent-effect
AUC(0-inf) [25]: 1210 ng·h/mL
inhibition [26]: Active
LD50 [27]: 300 mg/kg
inhibition (NCI-H1048 [28]): Dose-dependent-effect
AUC(0-t) at 24 h [29]: 1180 ng·h/mL
Activity [30]: Non-toxic
Activity (NCI-H1048 [31]): Dose-dependent-effect
MRT last at 24 h [32]: 5.42 h
Tmax [33]: 0.25 h
Activity (NCI-H446 [34]): Active
inhibition in vivo at 10 mg/kg (NCI-H446 [35]): 69.2%
inhibition (NCI-H446 [36]): Dose-dependent-effect
IC50 [37]: 13.9 µM
IC50 (NCI-H146): 6.23 µM

CC1CC(C)CN(Cc2cc3c(cc2-c2cc4ccc5c(c4cn2)OCO5)OCO3)C1 (centres undefined)
Activity [1]: Non-toxic
inhibition (Homo sapiens): Active; Exhibited Stronger Activity Against Topo Ii Compared To Topo I
Activity (NCI-H1048 [2]): Dose-dependent-effect
inhibition (NCI-H1048 [3]): Dose-dependent-effect; Potent Inhibitory Effect At Equivalent Efficacy As Etoposide
Activity [4]: Non-toxic
Activity (NCI-H446 [5]): Active
Activity [6]: Non-toxic
Activity (NCI-H446 [7]): Dose-dependent-effect
Activity (NCI-H1048 [8]): Dose-dependent-effect
Activity (NCI-H1048 [9]): Dose-dependent-effect
inhibition [10]: Active
Activity (NCI-H446 [11]): Active; Exhibited Markedly Slow Growth Rate
inhibition (NCI-H446 [12]): Dose-dependent-effect
Activity (NCI-H446 [13]): Dose-dependent-effect
IC50 (NCI-H1048 [14]): 1.42 µM
IC50 (SHP77): 7.92 µM
IC50 (NCI-H209): 36.8 µM
Activity (NCI-H446 [15]): Dose-dependent-effect
Activity (NCI-H1048 [16]): Dose-dependent-effect
MRT inf [17]: 5.19 h
Activity (NCI-H446 [18]): Active
Activity [19]: Non-toxic
inhibition (NCI-H1048 [20]): Dose-dependent-effect; Displayed Stronger Inhibitory Effect Than Etoposide
Activity (NCI-H446 [21]): Dose-dependent-effect
IC50 (NCI-H446 [22]): 1.3 µM
IC50 (NCI-H82): 2.25 µM
Activity [23]: Non-toxic
inhibition (NCI-H446 [24]): Dose-dependent-effect; Displayed Stronger Inhibitory Effect Than Etoposide
AUC(0-inf) [25]: 741 ng·h/mL
inhibition [26]: Active
LD50 [27]: 300 mg/kg
inhibition (NCI-H1048 [28]): Dose-dependent-effect; Exhibited Superior Inhibitory Effect Compared To Etoposide At Same Concentration
AUC(0-t) at 24 h [29]: 736 ng·h/mL
Activity [30]: Non-toxic
Activity (NCI-H1048 [31]): Dose-dependent-effect
MRT last at 24 h [32]: 5.02 h
Tmax [33]: 0.25 h
Activity (NCI-H446 [34]): Active
inhibition in vivo at 10 mg/kg (NCI-H446 [35]): 75.2%
inhibition (NCI-H446 [36]): Dose-dependent-effect; Displayed Stronger Inhibitory Effect Than Etoposide
IC50 [37]: 9.51 µM
IC50 (NCI-H146): 22.8 µM
